According to patent publication US20180105492A1, “COMPOUNDS DERIVED FROM 3-ALKYLAMINE-1H-INDOLYL ACRYLATE AND THEIR USE IN THE TREATMENT OF NEURODEGENERATIVE DISEASES” (FUNDACION PARA LA INVESTIGACION BIOMEDICA DEL HOSPITAL …, priority 2014, published 2018):

Legend:
SH-SY5Y cells = assay: Toxicity in SH-SY5Y neuronal cell line, reduction of cell viability (MTT); type: cell-based
Procedure: In order to assess cellular viability, we measured the metabolic reduction of 3-(4,5-Dimethylthiazol-2-yl)-2,5 diphenyltetrazolium bromide (MTT). MTT is an indirect assay to measure cellular viability. It is a colorimetric method based on the reduction of 3-(4,5-Dimethylthiazol-2-yl)-2,5 diphenyltetrazolium. This process is performed by the mitochondrial enzyme succinate-dehydrogenase present in metabolic active cells. Thus, the water-soluble yellow MTT (tetrazolium salt) is transformed into a insoluble purple compound (formazan). Quantity of living cells is directly proportional to the quantity of formazan (Mosmann, 1983, J Immunol Methods, 65: 55-63). […] Therefore, with this assay we can measure cellular surviving and proliferation and also, we can determine the cytotoxicity of potential neuroprotective compounds. In order to assess cellular viability in SH-SY5Y cell line, we added 30 μl/well of MTT (5 mg/mL) and after 2 h, medium was carefully removed to avoid losing the formazan and was diluted in 300 μL of DMSO. Afterwards, samples were transferred to a 96 well-plate and the absorbance was measured at 570 nm using a absorbance/fluorescence reader FluoStar optima®. Every MTT assay was performed in triplicates. Absorbance values obtained with the toxic alone were subtracted to the absorbance values obtained in basal conditions (without treatment). That result was considered as the 100% of cell death and the values obtained with the compounds in the presence of the toxic stimulus were normalized as percentages of that value. For determining the surviving percentage, those percentages of cell death were subtracted to 100. […]
In order to further study its safety profile, the effect of the derivatives on neuronal cells used for neuroprotection experiments, the SH-SY5Y human neuroblastoma cells, was also evaluated. Maintenance and culture methods of this cell line have been described above. For toxicity experiments, SH-SY5Y cells were plated in 96-well plates at the density of 6×10 ^4 cells/well. The experimental conditions were the same as those described for the toxicity study in HepG2 cells.
The results obtained are shown in Table 6 expressed as the lethal dose 50 (LD50), or needed concentration to reduce to 50% the viability of basal conditions (without treatment), measured by the MTT reduction method.

HepG2 cells = assay: Hepatotoxicity in HepG2 cell line, reduction of cell viability (MTT); type: cell-based
Procedure: In order to assess cellular viability, we measured the metabolic reduction of 3-(4,5-Dimethylthiazol-2-yl)-2,5 diphenyltetrazolium bromide (MTT). MTT is an indirect assay to measure cellular viability. It is a colorimetric method based on the reduction of 3-(4,5-Dimethylthiazol-2-yl)-2,5 diphenyltetrazolium. This process is performed by the mitochondrial enzyme succinate-dehydrogenase present in metabolic active cells. Thus, the water-soluble yellow MTT (tetrazolium salt) is transformed into a insoluble purple compound (formazan). Quantity of living cells is directly proportional to the quantity of formazan (Mosmann, 1983, J Immunol Methods, 65: 55-63). […] Therefore, with this assay we can measure cellular surviving and proliferation and also, we can determine the cytotoxicity of potential neuroprotective compounds. In order to assess cellular viability in SH-SY5Y cell line, we added 30 μl/well of MTT (5 mg/mL) and after 2 h, medium was carefully removed to avoid losing the formazan and was diluted in 300 μL of DMSO. Afterwards, samples were transferred to a 96 well-plate and the absorbance was measured at 570 nm using a absorbance/fluorescence reader FluoStar optima®. Every MTT assay was performed in triplicates. Absorbance values obtained with the toxic alone were subtracted to the absorbance values obtained in basal conditions (without treatment). That result was considered as the 100% of cell death and the values obtained with the compounds in the presence of the toxic stimulus were normalized as percentages of that value. For determining the surviving percentage, those percentages of cell death were subtracted to 100.
In general, compounds capable of inducing the transcription factor Nrf2 may have a hepatotoxic effect, due to the electrophilic character that generally characterizes them. The derivatives objects of this invention were designed to avoid this toxicity and to improve its safety profile. The liver plays an essential role in the metabolism of endogenous and exogenous compounds. Hepatocytes capture these compounds and after metabolizing them, they are eliminated by different mechanisms. Metabolized compounds usually have less pharmacological activity and less toxicity than the corresponding active principles. However, in certain cases, the active principles or their metabolites may be toxic to the hepatocytes. Hepatic toxicity is one of the leading causes of drug withdrawal from preclinical studies. […] In addition, these cells have been defined by the European Medicines Agency (EMA) as a model of hepatoxicity by measuring the induction of apoptosis and/or cell survival. Therefore, the safety profile of the compounds object of the present invention was evaluated in the HepG2 hepatic cancer cell line. HepG2 cells were cultured in T75 flask using EMEM as culture medium supplemented with non-essential amino acids, 10% fetal bovine serum, 50 units/mL penicillin and 50 μg/mL streptomycin (reagents from GIBCO, Madrid, Spain). Cultures were maintained in an incubator with an O2/CO2 gas mixture (95/5%) at 37° C. with a humid atmosphere and two passes per week were made when they reached 90% of confluence. All experiments were performed on cells that were between passages 5 and 15. For the experiments, the cells were plated in 96-well plates at a density of 4×10 ^4 cells/well in 200 μl of culture medium. After 24 h in culture, the medium was removed and replaced with 100 μL of the corresponding solution of the compounds of the invention in culture medium at the selected concentrations (1, 10, 30 and 100 μM). The compounds were studied in triplicate, including in each experiment 3 wells without treatment, which was considered as 100% of viability (baseline conditions). After 24 h of incubation with the treatments, cell viability was assessed by the MTT reduction method. […]

[1] = 24 h incubation, MTT, concentration reducing viability to 50% of basal

Q: Which results are given for `C/C=C/C(=O)Oc1ccc2[nH]cc(CCNC(C)=O)c2c1` [Compound 1, 3-(2-acetamidoethyl)-1H-indol-5-yl (E)-2-butenoate]?
A: SH-SY5Y LD50 (SH-SY5Y cells; [1]): >100 µM; HepG2 LD50 (HepG2 cells; [1]): >100 µM

Q: For `CC(=O)NCCc1c[nH]c2ccc(OC(=O)/C=C/c3ccccc3)cc12` [Compound 2, 3-(2-acetamidoethyl)-1H-indol-5-yl cinnamate], which “SH-SY5Y LD50” value (SH-SY5Y cells; [1]) is on record?
A: Its value is >100 µM.

Q: And the “HepG2 LD50” value (HepG2 cells; [1])?
A: The value was >100 µM.

Q: `CC(=O)NCCc1c[nH]c2ccc(OC(=O)/C=C/c3ccc(C)cc3)cc12` [Compound 3, 3-(2-acetamidoethyl)-1H-indol-5-yl (E)-3-(4-methylphenyl)acrylate] was tested. Which “SH-SY5Y LD50” value (SH-SY5Y cells; [1]) did it give?
A: The value was 80 µM.

Q: What about the “HepG2 LD50” value (HepG2 cells; [1]) of the same compound?
A: Its value is >100 µM.

Q: What does the source list for `COc1ccccc1/C=C/C(=O)Oc1ccc2[nH]cc(CCNC(C)=O)c2c1` [Compound 4, 3-(2-acetamidoethyl)-1H-indol-5-yl (E)-3-(2-methoxyphenyl)acrylate]?
A: SH-SY5Y LD50 (SH-SY5Y cells; [1]): 64 µM; HepG2 LD50 (HepG2 cells; [1]): >100 µM

Q: Which results are given for `COc1cccc(/C=C/C(=O)Oc2ccc3[nH]cc(CCNC(C)=O)c3c2)c1` [Compound 5, 3-(2-acetamidoethyl)-1H-indol-5-yl (E)-3-(3-methoxyphenyl)acrylate]?
A: SH-SY5Y LD50 (SH-SY5Y cells; [1]): 83 µM; HepG2 LD50 (HepG2 cells; [1]): >100 µM

Q: With `COc1ccc(/C=C/C(=O)Oc2ccc3[nH]cc(CCNC(C)=O)c3c2)cc1` [Compound 6, 3-(2-acetamidoethyl)-1H-indol-5-yl (E)-3-(4-methoxyphenyl)acrylate] as the compound, how does the “SH-SY5Y LD50” value (SH-SY5Y cells; [1]) read?
A: The value was 60 µM.

Q: And the “HepG2 LD50” value (HepG2 cells; [1])?
A: The value was >100 µM.

Q: `CC(=O)NCCc1c[nH]c2ccc(OC(=O)/C=C/c3ccc(O)cc3)cc12` [Compound 7, 3-(2-acetamidoethyl)-1H-indol-5-yl (E)-3-(4-hydroxyphenyl)acrylate] was tested. Which “SH-SY5Y LD50” value (SH-SY5Y cells; [1]) did it give?
A: Its value is >100 µM.

Q: What about the “HepG2 LD50” value (HepG2 cells; [1]) of the same compound?
A: The value was >100 µM.

Q: For `COc1cc(/C=C/C(=O)Oc2ccc3[nH]cc(CCNC(C)=O)c3c2)ccc1O` [Compound 8, 3-(2-acetamidoethyl)-1H-indol-5-yl (E)-3-(4-hydroxy-3-methoxyphenyl)acrylate], which “SH-SY5Y LD50” value (SH-SY5Y cells; [1]) is on record?
A: Its value is >100 µM.

Q: And the “HepG2 LD50” value (HepG2 cells; [1])?
A: Its value is >100 µM.

Q: What does the source list for `CC(=O)NCCc1c[nH]c2ccc(OC(=O)/C=C/c3ccc(F)cc3)cc12` [Compound 9, 3-(2-acetamidoethyl)-1H-indol-5-yl (E)-3-(4-fluorophenyl)acrylate]?
A: SH-SY5Y LD50 (SH-SY5Y cells; [1]): >100 µM; HepG2 LD50 (HepG2 cells; [1]): >100 µM

Q: With `CC(=O)NCCc1c[nH]c2ccc(OC(=O)/C=C/c3ccc(Br)cc3)cc12` [Compound 10, 3-(2-acetamidoethyl)-1H-indol-5-yl (E)-3-(4-bromophenyl)acrylate] as the compound, how does the “SH-SY5Y LD50” value (SH-SY5Y cells; [1]) read?
A: Its value is 60 µM.

Q: And the “HepG2 LD50” value (HepG2 cells; [1])?
A: The value was >100 µM.

Q: With `CC(=O)NCCc1c[nH]c2ccc(OC(=O)/C=C/c3ccc(Cl)cc3)cc12` [Compound 11, 3-(2-acetamidoethyl)-1H-indol-5-yl (E)-3-(4-chlorophenyl)acrylate] as the compound, how does the “SH-SY5Y LD50” value (SH-SY5Y cells; [1]) read?
A: Its value is >100 µM.

Q: What about the “HepG2 LD50” value (HepG2 cells; [1]) of the same compound?
A: Its value is >100 µM.

Q: Which results are given for `CC(=O)NCCc1c[nH]c2ccc(OC(=O)/C=C/c3ccc(Cl)c(Cl)c3)cc12` [Compound 12, 3-(2-acetamidoethyl)-1H-indol-5-yl (E)-3-(3,4-dichlorophenyl)acrylate]?
A: SH-SY5Y LD50 (SH-SY5Y cells; [1]): 51 µM; HepG2 LD50 (HepG2 cells; [1]): >100 µM

Q: For `CC(=O)NCCc1c[nH]c2ccc(OC(=O)/C=C/c3ccccc3C(F)(F)F)cc12` [Compound 13, 3-(2-acetamidoethyl)-1H-indol-5-yl (E)-3-(2-(trifluoromethyl)phenyl)acrylate], which “SH-SY5Y LD50” value (SH-SY5Y cells; [1]) is on record?
A: The value was >100 µM.

Q: And the “HepG2 LD50” value (HepG2 cells; [1])?
A: The value was >100 µM.

Q: Which results are given for `CC(=O)NCCc1c[nH]c2ccc(OC(=O)/C=C/c3cccc(C(F)(F)F)c3)cc12` [Compound 14, 3-(2-acetamidoethyl)-1H-indol-5-yl (E)-3-(3-(trifluoromethyl)phenyl)acrylate]?
A: SH-SY5Y LD50 (SH-SY5Y cells; [1]): >100 µM; HepG2 LD50 (HepG2 cells; [1]): >100 µM

Q: Which “SH-SY5Y LD50” value (SH-SY5Y cells; [1]) does the source give for `CC(=O)NCCc1c[nH]c2ccc(OC(=O)/C=C/c3ccc(C(F)(F)F)cc3)cc12` [Compound 15, 3-(2-acetamidoethyl)-1H-indol-5-yl (E)-3-(4-(trifluoromethyl)phenyl)acrylate] here?
A: The value was 70 µM.

Q: And the “HepG2 LD50” value (HepG2 cells; [1])?
A: The value was >100 µM.

Q: What does the source list for `CC(=O)NCCc1c[nH]c2ccc(OC(=O)/C=C/c3ccc([N+](=O)[O-])cc3)cc12` [Compound 16, 3-(2-acetamidoethyl)-1H-indol-5-yl (E)-3-(4-nitrophenyl)acrylate]?
A: SH-SY5Y LD50 (SH-SY5Y cells; [1]): >100 µM; HepG2 LD50 (HepG2 cells; [1]): >100 µM

Q: How did the “SH-SY5Y LD50” value (SH-SY5Y cells; human, 24 h) turn out when `COc1ccc2[nH]cc(CCNC(C)=O)c2c1` [Melatonin, reference compound] was run?
A: Its value is >100 µM.

Q: What about the “HepG2 LD50” value (HepG2 cells; human, 24 h) of the same compound?
A: The value was >100 µM.
